{
  "source": "the NIST ThermoML archive (doi:10.1021/je800110r)",
  "settings": "293.15 K, Liquid, Vibrating tube method",
  "note": "± gives the expanded uncertainty stated by the source.",
  "data": [
    {"smiles": "CCCCCCCCCC", "note": "[decane]", "values": [
      {"measurement": "mass density", "setting": "22074 kPa", "result": "745.5 ± 2", "unit": "kg/m3"},
      {"measurement": "mass density", "setting": "22091 kPa", "result": "745.6 ± 2", "unit": "kg/m3"},
      {"measurement": "mass density", "setting": "22110 kPa", "result": "745.5 ± 2", "unit": "kg/m3"},
      {"measurement": "mass density", "setting": "22128 kPa", "result": "745.6 ± 2", "unit": "kg/m3"},
      {"measurement": "mass density", "setting": "22143 kPa", "result": "745.7 ± 2", "unit": "kg/m3"},
      {"measurement": "mass density", "setting": "22164 kPa", "result": "745.5 ± 2", "unit": "kg/m3"},
      {"measurement": "mass density", "setting": "22179 kPa", "result": "745.6 ± 2", "unit": "kg/m3"},
      {"measurement": "mass density", "setting": "22199 kPa", "result": "745.6 ± 2", "unit": "kg/m3"},
      {"measurement": "mass density", "setting": "22217 kPa", "result": "745.7 ± 2", "unit": "kg/m3"},
      {"measurement": "mass density", "setting": "22235 kPa", "result": "745.7 ± 2", "unit": "kg/m3"},
      {"measurement": "mass density", "setting": "22253 kPa", "result": "745.5 ± 2", "unit": "kg/m3"},
      {"measurement": "mass density", "setting": "22275 kPa", "result": "745.8 ± 2", "unit": "kg/m3"},
      {"measurement": "mass density", "setting": "22300 kPa", "result": "745.7 ± 2", "unit": "kg/m3"},
      {"measurement": "mass density", "setting": "22318 kPa", "result": "745.7 ± 2", "unit": "kg/m3"},
      {"measurement": "mass density", "setting": "22336 kPa", "result": "745.7 ± 2", "unit": "kg/m3"},
      {"measurement": "mass density", "setting": "22358 kPa", "result": "745.8 ± 2", "unit": "kg/m3"},
      {"measurement": "mass density", "setting": "22373 kPa", "result": "745.8 ± 2", "unit": "kg/m3"},
      {"measurement": "mass density", "setting": "22397 kPa", "result": "745.8 ± 2", "unit": "kg/m3"},
      {"measurement": "mass density", "setting": "22412 kPa", "result": "745.8 ± 2", "unit": "kg/m3"},
      {"measurement": "mass density", "setting": "22434 kPa", "result": "745.7 ± 2", "unit": "kg/m3"},
      {"measurement": "mass density", "setting": "22452 kPa", "result": "745.7 ± 2", "unit": "kg/m3"},
      {"measurement": "mass density", "setting": "22473 kPa", "result": "745.8 ± 2", "unit": "kg/m3"},
      {"measurement": "mass density", "setting": "22498 kPa", "result": "745.9 ± 2", "unit": "kg/m3"},
      {"measurement": "mass density", "setting": "22523 kPa", "result": "745.9 ± 2", "unit": "kg/m3"},
      {"measurement": "mass density", "setting": "22542 kPa", "result": "745.8 ± 2", "unit": "kg/m3"},
      {"measurement": "mass density", "setting": "22564 kPa", "result": "746 ± 2", "unit": "kg/m3"},
      {"measurement": "mass density", "setting": "22583 kPa", "result": "745.9 ± 2", "unit": "kg/m3"},
      {"measurement": "mass density", "setting": "22605 kPa", "result": "745.9 ± 2", "unit": "kg/m3"},
      {"measurement": "mass density", "setting": "22624 kPa", "result": "745.9 ± 2", "unit": "kg/m3"},
      {"measurement": "mass density", "setting": "22648 kPa", "result": "745.8 ± 2", "unit": "kg/m3"},
      {"measurement": "mass density", "setting": "22667 kPa", "result": "745.9 ± 2", "unit": "kg/m3"},
      {"measurement": "mass density", "setting": "22689 kPa", "result": "746 ± 2", "unit": "kg/m3"},
      {"measurement": "mass density", "setting": "22711 kPa", "result": "745.9 ± 2", "unit": "kg/m3"},
      {"measurement": "mass density", "setting": "22727 kPa", "result": "746 ± 2", "unit": "kg/m3"},
      {"measurement": "mass density", "setting": "22746 kPa", "result": "746 ± 2", "unit": "kg/m3"},
      {"measurement": "mass density", "setting": "22771 kPa", "result": "746 ± 2", "unit": "kg/m3"},
      {"measurement": "mass density", "setting": "22787 kPa", "result": "746 ± 2", "unit": "kg/m3"},
      {"measurement": "mass density", "setting": "22807 kPa", "result": "746 ± 2", "unit": "kg/m3"},
      {"measurement": "mass density", "setting": "22830 kPa", "result": "746.1 ± 2", "unit": "kg/m3"},
      {"measurement": "mass density", "setting": "22852 kPa", "result": "746.1 ± 2", "unit": "kg/m3"},
      {"measurement": "mass density", "setting": "22866 kPa", "result": "746 ± 2", "unit": "kg/m3"},
      {"measurement": "mass density", "setting": "22882 kPa", "result": "746.2 ± 2", "unit": "kg/m3"},
      {"measurement": "mass density", "setting": "22899 kPa", "result": "746.2 ± 2", "unit": "kg/m3"},
      {"measurement": "mass density", "setting": "22915 kPa", "result": "746.2 ± 2", "unit": "kg/m3"},
      {"measurement": "mass density", "setting": "22934 kPa", "result": "746.2 ± 2", "unit": "kg/m3"},
      {"measurement": "mass density", "setting": "22948 kPa", "result": "746.2 ± 2", "unit": "kg/m3"},
      {"measurement": "mass density", "setting": "22970 kPa", "result": "746.2 ± 2", "unit": "kg/m3"},
      {"measurement": "mass density", "setting": "22994 kPa", "result": "746.1 ± 2", "unit": "kg/m3"},
      {"measurement": "mass density", "setting": "23011 kPa", "result": "746.2 ± 2", "unit": "kg/m3"},
      {"measurement": "mass density", "setting": "23030 kPa", "result": "746.2 ± 2", "unit": "kg/m3"},
      {"measurement": "mass density", "setting": "23047 kPa", "result": "746.1 ± 2", "unit": "kg/m3"},
      {"measurement": "mass density", "setting": "23069 kPa", "result": "746.1 ± 2", "unit": "kg/m3"},
      {"measurement": "mass density", "setting": "23086 kPa", "result": "746.1 ± 2", "unit": "kg/m3"},
      {"measurement": "mass density", "setting": "23108 kPa", "result": "746.2 ± 2", "unit": "kg/m3"},
      {"measurement": "mass density", "setting": "23127 kPa", "result": "746.3 ± 2", "unit": "kg/m3"},
      {"measurement": "mass density", "setting": "23144 kPa", "result": "746.2 ± 2", "unit": "kg/m3"},
      {"measurement": "mass density", "setting": "23167 kPa", "result": "746.2 ± 2", "unit": "kg/m3"},
      {"measurement": "mass density", "setting": "23186 kPa", "result": "746.2 ± 2", "unit": "kg/m3"},
      {"measurement": "mass density", "setting": "23206 kPa", "result": "746.4 ± 2", "unit": "kg/m3"},
      {"measurement": "mass density", "setting": "23223 kPa", "result": "746.3 ± 2", "unit": "kg/m3"},
      {"measurement": "mass density", "setting": "23246 kPa", "result": "746.3 ± 2", "unit": "kg/m3"},
      {"measurement": "mass density", "setting": "23265 kPa", "result": "746.4 ± 2", "unit": "kg/m3"},
      {"measurement": "mass density", "setting": "23285 kPa", "result": "746.4 ± 2", "unit": "kg/m3"},
      {"measurement": "mass density", "setting": "23308 kPa", "result": "746.2 ± 2", "unit": "kg/m3"},
      {"measurement": "mass density", "setting": "23328 kPa", "result": "746.4 ± 2", "unit": "kg/m3"},
      {"measurement": "mass density", "setting": "23345 kPa", "result": "746.3 ± 2", "unit": "kg/m3"},
      {"measurement": "mass density", "setting": "23362 kPa", "result": "746.3 ± 2", "unit": "kg/m3"},
      {"measurement": "mass density", "setting": "23382 kPa", "result": "746.3 ± 2", "unit": "kg/m3"}
    ]}
  ]
}
